In US11098055B2, “Ester ACC inhibitors and uses thereof” (Gilead Apollo, LLC, priority 2015, dated 2021):
Converted amounts (≈) assume the structure as drawn.

What was measured:
hACC2 = hACC2 (Homo sapiens, UniProt O00763); experiment: In vitro ACC2 inhibition assay (ADP-Glo), human ACC2; type: biochemical
Procedure: An exemplary procedure for the in vitro ACC inhibition assay, which can be used to determine the inhibitory action of compounds of the invention toward either human (hACC2) or fungal (fACC2) ACC2, follows. The ADP-Glo™ Kinase Assay kit from Promega was used. The ADP-Glo™ Kinase Assay is a luminescent ADP detection assay to measure enzymatic activity by quantifying the amount of ADP produced during an enzyme reaction. The assay is performed in two steps; first, after the enzyme reaction, an equal volume of ADP-Glo™ Reagent is added to terminate the reaction and deplete the remaining ATP. Second, the Kinase Detection Reagent is added to simultaneously convert ADP to ATP and allow the newly synthesized ATP to be measured using a luciferase/luciferin reaction. Luminescence can be correlated to ADP concentrations by using an ATP-to-ADP conversion curve. The detailed procedure is as follows. 50 μL of the compound being tested (600 μM in DMSO) was added to a 384-well dilution plate. The compound was diluted 1:3 in succession in DMSO for each row for 11 wells. 0.5 μL ACC2 working solution was added to 384-well white Optiplate assay plate. 0.5 μL diluted compound solution in each column from step 2 was added to assay plate, each row containing 2 replicates. For the last 2 rows, 0.5 μL negative control (DMSO) was added in one row and 0.5 μL positive control (compound I-97) in the other. The plates were incubated at room temperature for 15 minutes. 5 μL substrate working solution was added to each well to initiate reaction. Final ACC2 reaction concentrations consist of: 5 nM ACC2, 20 μM ATP, 20 μM acetyl-CoA, 12 mM NaHCO3, 0.01% Brij35, 2 mM DTT, 5% DMSO, test compound concentrations: 30 μM, 10 μM, 3.33 μM, 1.11 μM, 0.37 μM, 0.123 μM, 0.0411 μM, 0.0137 μM, 0.00457 μM, 0.00152 μM, and 0.00051 μM. Plates were incubated at room temperature for 60 minutes. 10 μL ADP glo reagent was added. Plates were incubated at room temperature for 40 minutes. 20 μL kinase detection reagent was added. Plates were incubated at room temperature for 40 minutes, and then read on a Perkin Elmer EnVision 2104 plate reader for luminescence as Relative Light Units (RLU).
Data for each concentration, as well as the positive and negative controls, were averaged, and the standard deviation calculated. Percent inhibition was calculated by the formula: 100×(average negative control−compound)/(average negative control−average positive control). The IC50 for each compound was calculated by fitting the data with a non-linear regression equation: Y=Bottom+(Top−Bottom)/(1+10^((Log IC50−X)*HillSlope)), where X is the log of compound concentration and Y is percent inhibition.

C. albicans ATCC 90028 = experiment: Anti-Fungal (Candida) Activity Assay, broth microtiter MIC; type: cell-based; conditions: ATCC90028, 48 h, 3 replicates, MIC read at 48 h
Procedure: (§1) Compounds of the present invention were evaluated in an Anti-Fungal Activity Assay. An exemplary procedure for the assay, which measures the susceptibility of various Candida species to anti-fungal compounds, follows. Compounds to be tested (including fluconazole and amphotericin B) were dissolved in DMSO to obtain a solution having a concentration of 1 mg/mL. These stock solutions were sterile filtered using a 0.22 um nylon syringe filter, then diluted in sterile water to achieve a final concentration of 128 μg/mL.
(§2) All species were grown from frozen stock by directly plating on to freshly prepared Sabouraud Dextrose agar (BD, Difco) and incubated overnight in ambient air at 35° C. for 24 h. A direct suspension was prepared in RPMI 1640+MOPS (Lonza, Biowhittaker) by taking individual colonies from the overnight cultures using sterile swabs soaked in sterile saline. The concentration of the suspension was determined using pre-determined standard curves. These suspensions were then diluted down to 5×10^3 CFU/mL to achieve a final concentration of 2.5×10^3 CFU/mL once added to the microtiter plate as per CLSI guidelines (M27-A3, Vol. 28 No. 14).
(§3) Broth microtiter MIC challenge plates were prepared following CLSI guidelines (M27-A3, Vol. 28 No. 14). The original CLSI guidelines focused on reading Candida MICs after 48 h of incubation. As reading after only 24 h offers a clear advantage of patient care, QC limits are being established for all drugs at 24 h. That being said there are no known interpretive breakpoints for amphotericin B at 24 h and the current fluconazole interpretive breakpoints are based on a 48 h reading. The MIC for the test compounds were recorded at 48 h. All MIC determinations were achieved by visually comparing the growth found in the antibiotic challenged wells to that of the growth control.

[1] = tested on: C. parapsilosis ATCC 22019; experiment: as above; type: cell-based; conditions: Lodderomyces parapsilosis, ATCC22019, 48 h, 3 replicates, MIC read at 48 h
Procedure: as §1, §2, §3

C. krusei ATCC 6258 = experiment: as above; type: cell-based, Candida krusei; conditions: Pichia kudriavzevii, ATCC6258, 48 h, 3 replicates, MIC read at 48 h
Procedure: as §1, §2, §3

Chain of hACC2 (O00763 whole entry): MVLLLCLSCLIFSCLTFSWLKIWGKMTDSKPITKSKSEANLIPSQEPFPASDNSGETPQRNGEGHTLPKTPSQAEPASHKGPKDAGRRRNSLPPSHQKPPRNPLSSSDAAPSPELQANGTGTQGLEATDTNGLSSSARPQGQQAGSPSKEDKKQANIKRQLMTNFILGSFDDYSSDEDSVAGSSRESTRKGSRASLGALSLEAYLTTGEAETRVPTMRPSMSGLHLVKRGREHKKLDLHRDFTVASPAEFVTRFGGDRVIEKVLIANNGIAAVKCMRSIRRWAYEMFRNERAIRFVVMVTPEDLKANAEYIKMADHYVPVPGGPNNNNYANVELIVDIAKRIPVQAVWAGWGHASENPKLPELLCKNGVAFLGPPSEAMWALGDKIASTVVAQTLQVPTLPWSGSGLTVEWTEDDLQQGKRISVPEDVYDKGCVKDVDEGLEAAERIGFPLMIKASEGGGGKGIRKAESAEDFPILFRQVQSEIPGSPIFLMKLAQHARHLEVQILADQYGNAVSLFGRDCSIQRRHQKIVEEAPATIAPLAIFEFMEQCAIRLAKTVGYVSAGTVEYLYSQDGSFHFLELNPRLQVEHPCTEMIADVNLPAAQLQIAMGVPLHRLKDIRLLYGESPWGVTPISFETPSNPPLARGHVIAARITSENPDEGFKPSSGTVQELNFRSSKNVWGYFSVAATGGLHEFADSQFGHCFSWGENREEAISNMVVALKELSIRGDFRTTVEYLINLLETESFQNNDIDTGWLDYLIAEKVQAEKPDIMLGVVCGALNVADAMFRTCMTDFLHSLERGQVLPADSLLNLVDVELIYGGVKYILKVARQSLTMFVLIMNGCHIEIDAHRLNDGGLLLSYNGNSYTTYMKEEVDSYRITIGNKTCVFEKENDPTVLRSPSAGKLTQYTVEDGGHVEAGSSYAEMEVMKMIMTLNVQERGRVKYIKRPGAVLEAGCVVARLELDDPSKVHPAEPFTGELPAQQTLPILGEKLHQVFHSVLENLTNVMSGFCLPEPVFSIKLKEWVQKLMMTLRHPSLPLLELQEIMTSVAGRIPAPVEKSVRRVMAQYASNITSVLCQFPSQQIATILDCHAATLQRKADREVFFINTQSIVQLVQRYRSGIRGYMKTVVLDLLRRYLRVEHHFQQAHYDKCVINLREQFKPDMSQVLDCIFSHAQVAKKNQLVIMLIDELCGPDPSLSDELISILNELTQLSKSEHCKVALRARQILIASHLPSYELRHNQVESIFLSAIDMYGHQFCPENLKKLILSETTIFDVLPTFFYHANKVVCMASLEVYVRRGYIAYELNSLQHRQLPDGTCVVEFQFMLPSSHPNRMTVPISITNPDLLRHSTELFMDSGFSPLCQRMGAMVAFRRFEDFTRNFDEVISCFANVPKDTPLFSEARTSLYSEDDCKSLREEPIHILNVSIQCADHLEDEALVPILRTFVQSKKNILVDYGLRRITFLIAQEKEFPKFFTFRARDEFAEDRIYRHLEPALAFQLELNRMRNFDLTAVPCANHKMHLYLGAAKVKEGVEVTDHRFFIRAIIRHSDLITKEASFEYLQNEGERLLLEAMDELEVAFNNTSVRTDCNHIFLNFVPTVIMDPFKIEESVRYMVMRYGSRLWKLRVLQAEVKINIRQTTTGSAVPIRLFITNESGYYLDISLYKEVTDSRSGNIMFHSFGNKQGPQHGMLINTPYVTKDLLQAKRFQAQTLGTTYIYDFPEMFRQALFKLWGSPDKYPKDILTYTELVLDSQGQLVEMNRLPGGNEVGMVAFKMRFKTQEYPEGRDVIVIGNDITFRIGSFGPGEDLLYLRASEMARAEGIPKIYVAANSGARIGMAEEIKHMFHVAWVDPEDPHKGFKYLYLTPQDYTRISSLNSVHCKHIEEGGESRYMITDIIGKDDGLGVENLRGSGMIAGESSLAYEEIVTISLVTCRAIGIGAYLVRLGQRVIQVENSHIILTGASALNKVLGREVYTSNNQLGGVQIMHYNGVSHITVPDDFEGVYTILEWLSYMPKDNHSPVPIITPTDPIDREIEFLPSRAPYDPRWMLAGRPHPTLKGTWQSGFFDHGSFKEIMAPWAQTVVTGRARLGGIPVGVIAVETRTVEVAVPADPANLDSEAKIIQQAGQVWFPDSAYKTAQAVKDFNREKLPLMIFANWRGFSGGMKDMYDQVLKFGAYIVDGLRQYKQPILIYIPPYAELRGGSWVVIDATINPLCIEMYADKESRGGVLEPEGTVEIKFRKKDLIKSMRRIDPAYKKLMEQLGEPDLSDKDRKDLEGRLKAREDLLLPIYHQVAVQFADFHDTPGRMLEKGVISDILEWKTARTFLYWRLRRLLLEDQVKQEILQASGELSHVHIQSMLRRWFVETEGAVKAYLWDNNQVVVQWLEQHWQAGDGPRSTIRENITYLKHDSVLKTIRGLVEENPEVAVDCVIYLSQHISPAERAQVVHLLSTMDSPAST

| Structure (SMILES) | IC50 (hACC2; Table 2b (additional results)) [nM] | MIC (C. albicans ATCC 90028; Table 3b (additional results)) [µg/mL] | MIC ([1]; Table 3b (additional results)) [µg/mL] | MIC (C. krusei ATCC 6258; Table 3b (additional results)) [µg/mL] | IC50 (hACC2; Table 2a) [nM] | MIC (C. albicans ATCC 90028; Table 3a) [µg/mL] | MIC ([1]; Table 3a) [µg/mL] | MIC (C. krusei ATCC 6258; Table 3a) [µg/mL] |
| --- | --- | --- | --- | --- | --- | --- | --- | --- |
| CCOC(=O)c1sc2c(c1C)c(=O)n([C@@H](C)C(N)=O)c(=O)n2C[C@H](OCCC#N)c1cc(F)ccc1OC [Compound I-25, ethyl 3-((S)-1-amino-1-oxopropan-2-yl)-1-((R)-2-(2-cyanoethoxy)-2-(5-fluoro-2-methoxyphenyl)ethyl)-5-methyl-2,4-dioxo-1,2,3,4-tetrahydrothieno[2,3-d]pyrimidine-6-carboxylate] | 3 to 10 | 2.1 to 4 (≈ 3.84 to 7.32 µM) | 2.1 to 4 (≈ 3.84 to 7.32 µM) | 1.1 to 2 (≈ 2.01 to 3.66 µM) | – | – | – | – |
| CCOC(=O)c1sc2c(c1C)c(=O)n(C(C)(C)C(=O)NC(C)C)c(=O)n2C[C@H](OCCOC)c1cc(F)ccc1OC [Compound I-11, (R)-ethyl 1-(2-(5-fluoro-2-methoxyphenyl)-2-(2-methoxy-ethoxy)ethyl)-3-(1-(isopropylamino)-2-methyl-1-oxopropan-2-yl)-5-methyl-2,4-dioxo-1,2,3,4-tetrahydrothieno[2,3-d]pyrimidine-6-carboxylate] | 10 to 40 | 2.1 to 4 (≈ 3.46 to 6.58 µM) | 1.1 to 2 (≈ 1.81 to 3.29 µM) | 2.1 to 4 (≈ 3.46 to 6.58 µM) | 10 to 40 | 2.1 to 4 (≈ 3.46 to 6.58 µM) | 2.1 to 4 (≈ 3.46 to 6.58 µM) | 2.1 to 4 (≈ 3.46 to 6.58 µM) |
| CCOC(=O)c1sc2c(c1C)c(=O)n(C(C)(C)C(N)=O)c(=O)n2C[C@H](OCCO)c1cc(F)ccc1OC [Compound I-17, (R)-ethyl 3-(1-amino-2-methyl-1-oxopropan-2-yl)-1-(2-(5-fluoro-2-methoxyphenyl)-2-(2-hydroxyethoxy)ethyl)-5-methyl-2,4-dioxo-1,2,3,4-tetrahydro-thieno[2,3-d]pyrimidine-6-carboxylate] | – | 2.1 to 4 (≈ 3.81 to 7.25 µM) | 1.1 to 2 (≈ 1.99 to 3.63 µM) | 2.1 to 4 (≈ 3.81 to 7.25 µM) | 10 to 40 | > 4.1 | > 4.1 | > 4.1 |
| CCOC(=O)c1sc2c(c1C)c(=O)n(C(C)(C)C(=O)N1CCCCC1)c(=O)n2C[C@H](OC(C)C)c1ccccc1OC [Compound I-6, (R)-ethyl 1-(2-isopropoxy-2-(2-methoxyphenyl)ethyl)-5-methyl-3-(2-methyl-1-oxo-1-(piperidin-1-yl)propan-2-yl)-2,4-dioxo-1,2,3,4-tetrahydrothieno[2,3-d]pyrimidine-6-carboxylate] | 10 to 40 | 2.1 to 4 (≈ 3.5 to 6.67 µM) | 2.1 to 4 (≈ 3.5 to 6.67 µM) | 2.1 to 4 (≈ 3.5 to 6.67 µM) | 10 to 40 | 2.1 to 4 (≈ 3.5 to 6.67 µM) | > 4.1 | 2.1 to 4 (≈ 3.5 to 6.67 µM) |
| CCNC(=O)C(C)(C)n1c(=O)c2c(C)c(C(=O)OCC)sc2n(C[C@H](OCCC#N)c2ccccc2OC)c1=O [Compound I-32, ethyl (R)-1-(2-(2-cyanoethoxy)-2-(2-methoxyphenyl)ethyl)-3-(1-(ethylamino)-2-methyl-1-oxopropan-2-yl)-5-methyl-2,4-dioxo-1,2,3,4-tetrahydrothieno[2,3-d]pyrimidine-6-carboxylate] | 3 to 10 | 2.1 to 4 (≈ 3.68 to 7.01 µM) | > 4.1 | 0.25 to 1 (≈ 0.438 to 1.75 µM) | – | – | – | – |
| CCOC(=O)c1sc2c(c1C)c(=O)n(C(C)(C)C(=O)NC(C)C)c(=O)n2C[C@H](OCCO)c1cc(F)ccc1OC [Compound I-18, (R)-ethyl 1-(2-(5-fluoro-2-methoxyphenyl)-2-(2-hydroxy-ethoxy)ethyl)-3-(1-(isopropylamino)-2-methyl-1-oxopropan-2-yl)-5-methyl-2,4-dioxo-1,2,3,4-tetrahydrothieno[2,3-d]pyrimidine-6-carboxylate] | – | 1.1 to 2 (≈ 1.85 to 3.37 µM) | 1.1 to 2 (≈ 1.85 to 3.37 µM) | 0.25 to 1 (≈ 0.421 to 1.68 µM) | 10 to 40 | 1.1 to 2 (≈ 1.85 to 3.37 µM) | 2.1 to 4 (≈ 3.54 to 6.74 µM) | 0.25 to 1 (≈ 0.421 to 1.68 µM) |
| CCNC(=O)C(C)(C)n1c(=O)c2c(C)c(C(=O)OCC)sc2n(C[C@H](OCCC#N)c2cc(F)ccc2OC)c1=O [Compound I-29, (R)-ethyl 1-(2-(2-cyanoethoxy)-2-(5-fluoro-2-methoxy-phenyl)ethyl)-3-(1-(ethylamino)-2-methyl-1-oxopropan-2-yl)-5-methyl-2,4-dioxo-1,2,3,4-tetrahydrothieno[2,3-d]pyrimidine-6-carboxylate] | 3 to 10 | 1.1 to 2 (≈ 1.87 to 3.4 µM) | 2.1 to 4 (≈ 3.57 to 6.8 µM) | 2.1 to 4 (≈ 3.57 to 6.8 µM) | – | – | – | – |
